The values that follow come from EP0005541A2, “Substituted piperidine, morpholine or piperidone derivatives, fungicides containing these compounds, process for their preparation and their use, and the use of these compounds as fungicides” (F. HOFFMANN-LA ROCHE & CO. Aktiengesellschaft, priority 1978, dated 1979).

Structures are written as SMILES.

What all share (assay type): in vivo
Assay [1] relates to Puccinia coronata. Nature of the assay: Puccinia coronata protective spray test on oat seedlings. Particulars: oat seedlings FLAEMINGSKRONE, infected 2 days after spraying, read on day 9 after infection vs infected untreated control. The protocol: 30-40 Haferkeimlinge der Sorte FLAEMINGSKRONE (verteilt auf 2 Töpfe mit 7 cm Durchmesser) wurden jeweils im Einblattstadium mit einer wässerigen Dispersion der Testsubstanz (wie allgemein üblich aufbereitet als Spritzpulver) allseitig gründlich besprüht und anschliessend in einer Klimakabine bei 17°C. 70-80% rel. Luftfeuchtigkeit und einer Photoperiode von 16 Stunden weiterkultiviert. Nach 2 Tagen erfolgte die Infektion der Versuchspflanzen durch Besprühen mit in dest. Wasser suspendierten Uredosporen (300'000 Sporen/ml) vor. Puccinia coronata. Danach wurden die Pflanzen während 24 Stunden bei 20°C und einer Luftfeuchtigkeit von über 90W im Dunkeln inkubiert und anschliessend in ein Gewächshaus mit einer Temperatur von 22-26 °C, einer rel. Luftfeuchtigkeit von 70% und einer Photoperiode von 18 Stunden übe führt. Am 9. Tage nach der Infektion wurde die durch Pucrinia coronata befallene Blattfläche in % gegenüber der infizierten, nicht behandelten Kontrolle ermittelt. Die ResLltate sind in Tabelle I zusammengefasst.

Assay [2] concerns Venturia inaequalis. In words: Venturia inaequalis protective spray test on apple seedlings. Particulars: infected 2 days after spraying, read on day 13 after infection vs infected untreated control. The protocol:
3 Apfelpflänzchen (verteilt auf 3 Töpfe mit 5 cm Durchmesser) aus Samen der Sorte GOLDIN DELICIOUS wurden im 4- bis 5-Blattstadium mit einer wässerigen Dispersion der Testsubstanz (wie allgemein üblich aufbereitet als Spritzpulver) allseitig gründlich besprüht. Die behandelten Pflanzen wurden anschliessend während 2 Tagen bei 17°C, 70-80%rel. Luftfeuchtigkeit und einer Photoperiode von 14 Stunden weiterkultiviert. Danach erfolgte die Infektion der Apfelsämlinge durch Besprühen mit in dest. Wasser suspendierten Konidien (200'000 Konidien/ml) von Venturia inaequalis. Nach der Infektion wurden die Pflanzen im Dunkeln während 48 Stunden bei 16-18°C und einer rel. Luftfeuchtigkeit von über 90% inkubiert und anschliessend in ein schattiertes Gewächshaus mit einer Temperatur von 22-26 °C und einer rel. Luftfeuchtigkeit von über 80% überführt. Am 13. Tage nach der Infektion erfolgte die Ermittlung der durch Venturia inaequalis befallenen Blattfläche gegenüber der infizierten, nicht behandelten Kontrolle. Die Resultate sind in Tabelle II zusammengefasst.

Assay [3] concerns Erysiphe graminis. In words: Erysiphe graminis protective spray test on barley seedlings (greenhouse). Particulars: barley seedlings HERTA, infected 2 days after spraying, read 7 days after infection vs infected untreated control. The protocol:
30-40 Gerstenkeimlinge der Sorte HERTA (verteilt auf 2 Töpfe mit 7 cm Durchmesser) wurden jeweils im Einblattstadium mit einer wässerigen Dispersion der Testsubstanz (wie allgemein üblich aufbereitet als Spritzpulver) allseitig gründlich besprüht und anschliessend bei 22-26°C, 80% rel. Luftfeuchtigkeit und einer Photoperiode von 16 Stunden im Gewächshaus weiterkultiviert. Die Infektion erfolgte 2 Tage nach der Behandlung durch Bestäuben der Versuchspflanzen mit Kon dien von Erysiphe graminis. 7 Tage nach der Infektion wurde ::ie durch Erysiphe graminis befallene Blattfläche in % gegenüber derjenigen der infizierten, nicht behandelten Kontrolle ermittelt. Die Resultate sind in Tabelle I zusammengefasst.

On to `CC(Cc1ccc(C(C)(C)CCl)cc1)CN1CC(C)CC(C)C1` (centres unmarked) [1-/3-[p-(2-Chlor-1,1-dimethyl-äthyl)-phenyl]-2-methyl-propyl/-3,5-dimethyl-piperidin], for which the “Wirkung (in %) Puccinia coronata” value in assay [1] (5 mg/l Spritzbrühe) was determined as 40%; in assay [1] (16 mg/l Spritzbrühe), 98%; in assay [1] (50 mg/l Spritzbrühe) it was 100%; in assay [1] (160 mg/l Spritzbrühe) it was 100%; in assay [1] (500 mg/l Spritzbrühe), 100%. Besides, the “Wirkung (in %) Venturia inaequalis” value in assay [2] (5 mg/l Spritzbrühe) is 20%; in assay [2] (16 mg/l Spritzbrühe), 33%; in assay [2] (50 mg/l Spritzbrühe), 77%; in assay [2] (160 mg/l Spritzbrühe) it was 87%; in assay [2] (500 mg/l Spritzbrühe), 99%. Besides, the “Wirkung (in %) Erysiphe graminis” value in assay [3] (5 mg/l Spritzbrühe) turned out to be 85%; in assay [3] (16 mg/l Spritzbrühe) it was 92%; in assay [3] (50 mg/l Spritzbrühe) it was 100%; in assay [3] (160 mg/l Spritzbrühe), 100%; in assay [3] (500 mg/l Spritzbrühe), 100%.

For `CC(Cc1ccc(C(C)(C)CCl)cc1)CN1CCCCC1` (centres unmarked) [1-/3-[p-(2-Chlor-1,1-dimethyl-äthyl)-phenyl]-2-methyl-propyl/-piperidin], the “Wirkung (in %) Puccinia coronata” value turned out to be 30% in assay [1] (5 mg/l Spritzbrühe); 65% in assay [1] (16 mg/l Spritzbrühe); 85% in assay [1] (50 mg/l Spritzbrühe); 100% in assay [1] (160 mg/l Spritzbrühe); 100% in assay [1] (500 mg/l Spritzbrühe). Also, the “Wirkung (in %) Venturia inaequalis” value is 0% in assay [2] (5 mg/l Spritzbrühe); 20% in assay [2] (16 mg/l Spritzbrühe); 30% in assay [2] (50 mg/l Spritzbrühe); 90% in assay [2] (160 mg/l Spritzbrühe); 95% in assay [2] (500 mg/l Spritzbrühe). Also, the “Wirkung (in %) Erysiphe graminis” value turned out to be 45% in assay [3] (5 mg/l Spritzbrühe); 70% in assay [3] (16 mg/l Spritzbrühe); 80% in assay [3] (50 mg/l Spritzbrühe); 97% in assay [3] (160 mg/l Spritzbrühe); 100% in assay [3] (500 mg/l Spritzbrühe).

As for `CCC(C)(C)c1ccc(C(C)=C(C)CN2CCC3(CC2)OCCO3)cc1` [1-[3-(p-tert.-Amyl-phenyl)-2,3-dimethyl-2-propenyl]-4,4-äthylendioxy-piperidin], the “Wirkung (in %) Puccinia coronata” value in assay [1] (5 mg/l Spritzbrühe) turned out to be 20%; in assay [1] (16 mg/l Spritzbrühe) it was 98%; in assay [1] (50 mg/l Spritzbrühe) it was 100%; in assay [1] (160 mg/l Spritzbrühe) it was 100%; in assay [1] (500 mg/l Spritzbrühe), 100%. The “Wirkung (in %) Venturia inaequalis” value is 0% in assay [2] (5 mg/l Spritzbrühe); 0% in assay [2] (16 mg/l Spritzbrühe); 10% in assay [2] (50 mg/l Spritzbrühe); 10% in assay [2] (160 mg/l Spritzbrühe); 95% in assay [2] (500 mg/l Spritzbrühe). The “Wirkung (in %) Erysiphe graminis” value is reported as 75% in assay [3] (5 mg/l Spritzbrühe), 90% in assay [3] (16 mg/l Spritzbrühe), 90% in assay [3] (50 mg/l Spritzbrühe) and 98% in assay [3] (160 mg/l Spritzbrühe).

Take `CCC(C)(C)c1ccc(CC(C)CN2CCC3(CC2)OCCO3)cc1` (centres unmarked) [1-[3-(p-tert.-Amyl-phenyl)-2-methyl-propyl]-4,4-äthylendioxy-piperidin]: the “Wirkung (in %) Puccinia coronata” value is on record as 10% in assay [1] (5 mg/l Spritzbrühe); 30% in assay [1] (16 mg/l Spritzbrühe); 90% in assay [1] (50 mg/l Spritzbrühe); 100% in assay [1] (160 mg/l Spritzbrühe); 100% in assay [1] (500 mg/l Spritzbrühe). Also, the “Wirkung (in %) Venturia inaequalis” value in assay [2] (5 mg/l Spritzbrühe) amounted to 0%; in assay [2] (16 mg/l Spritzbrühe), 40%; in assay [2] (50 mg/l Spritzbrühe), 63%; in assay [2] (160 mg/l Spritzbrühe), 97%; in assay [2] (500 mg/l Spritzbrühe), 98%. For the same molecule, the “Wirkung (in %) Erysiphe graminis” value is recorded as 75% in assay [3] (5 mg/l Spritzbrühe); 85% in assay [3] (16 mg/l Spritzbrühe); 90% in assay [3] (50 mg/l Spritzbrühe); 100% in assay [3] (160 mg/l Spritzbrühe); 100% in assay [3] (500 mg/l Spritzbrühe).
